Source: patent publication US11008555B2 (The Regents of the University of California, priority 2015, dated 2021)

Tested on: chromosomal GFP
Test: CRISPRi GFP repression assay in E. coli
Format: cell-based, Escherichia coli MG1655
Details: ligand dose response on arC9:231, SOB media, normalized to vector control
Text: Escherichia coli MG1655, which have chromosomally integrated constitutive GFP and RFP expression, were used for in vivo screening, fluorescence measurements, and transformation assays. Cell transformation, plasmid maintenance, and verification of transformation were done as previously described using AmpR and CmR as selectable markers. EZ-rich defined growth medium (EZ-RDM, Teknoka) was used for in vivo fluorescence assays unless otherwise noted. Super optimal broth (S.O.B) medium was used for library outgrowth and screening. The arC9 ligands used (4-hydroxytamoxifen (4-HT), nafoxidine, beta-estradiol, and diethylstilbestrol) were all ordered from Sigma and resuspended in dimethyl sulfoxide (DMSO).
For individual PDZ-construct testing, colonies were cultured from plates, PDZ-dCas9 plasmid DNA recovered, separated from the RFP guide plasmid (pgRNA-bacteria Addgene ID: 44251) via restriction digestion with BsaI and co-transformed with a guide plasmid to repress chromosomal GFP. GFP repression for each construct was then tested in triplicate in a 96-well microplate reader (Tecan M1000) at 37° C. PDZ clones were grown with appropriate antibiotics, 0.2 nM aTc, dCas9, and inducer. OD600 nm absorbance was measured for each well. GFP signal was measured, normalized for OD600 nm and compared when the cultures were approaching saturation (80% of the maximum OD600 nm) The arC9 construct was treated and assayed in the same fashion as above with induction using […]. Fold changes for the effect of different ligands were calculated by normalizing the GFP/OD600 of the arC9 construct to that of a vector control and dividing the fluorescent values without ligand by the fluorescent values with ligand treatment. For single cell analysis of arC9, cells were grown for ˜6 hours with antibiotics and inducer, washed with PBS, and assayed for GFP fluorescence using a Sony SH800 cell sorter.

Compound | effect of ligand on arC9:231 CRISPRi-based GFP repression
4-hydroxytamoxifen [4-HT] | increased
C[C@]12CC[C@@H]3c4ccc(O)cc4CC[C@H]3[C@@H]1CC[C@@H]2O [beta-estradiol] | increased only with ligands that encourage the ER-LBD to enter an antagonist conformation
CC/C(=C(/CC)c1ccc(O)cc1)c1ccc(O)cc1 [diethylstilbestrol] | increased only with ligands that encourage the ER-LBD to enter an antagonist conformation
COc1ccc2c(c1)CCC(c1ccccc1)=C2c1ccc(OCCN2CCCC2)cc1 [nafoxidine] | increased
